Reference: US9975900B2, “Substituted imidazo[1,2-α]pyrazines for treating spinal muscular atrophy” (Hoffmann-La Roche Inc., priority 2014, dated 2018)
Structures can show the parent of a compound that is named as a salt.

Tests used:
[1] = test system: full length SMN2 minigene mRNA (HEK293H cells stably transfected with the SMN2-A minigene construct); test: RT-qPCR assay for SMN2 minigene pre-mRNA splicing in cultured cells; type: cell-based; settings: Homo sapiens, HEK293-H, 24 hours, 7-point concentration curve, concentration giving 1.5-fold FL SMN2mini mRNA vs vehicle, read-out: EC1.5x minigene (EC1.5x concentration for production of full length SMN2 minigene mRNA)
Method: The reverse transcription-quantitative PCR-based (RT-qPCR) assay is used to quantify the level of the full length SMN2 minigene (referred to herein by the term “FL SMN2mini”) mRNA containing SMN2 exon 7 in a HEK293H cell line stably transfected with said minigene and treated with a test compound. Materials used and respective sources are listed below in Table 1.
The SMN2-A minigene construct was prepared as described in International Patent Application WO2009/151546A1 page 145 paragraph [00400] to page 147 paragraph [00412] (incl. FIG. 1 and FIG. 3 therein).
HEK293H cells stably transfected with the SMN2-A minigene construct (10,000 cells/well) are seeded in 200 μL of cell culture medium (DMEM plus 10% FBS, with 200 μg/mL hygromycin) in 96-well flat-bottom plates and the plate is immediately swirled to ensure proper dispersal of cells and the formation of an even monolayer of cells. Cells are allowed to attach for 6 hours. Test compounds are serially diluted 3.16-fold in 100% DMSO to generate a 7-point concentration curve. A solution of test compound (1 μL, 200× in DMSO) is added to each cell-containing well and the plate is incubated for 24 hours in a cell culture incubator (37° C., 5% CO2, 100% relative humidity). 2 replicates are prepared for each test compound concentration. The cells are then lysed in the Cells-To-Ct lysis buffer and the lysate is stored at −80° C.
Full length SMN2-A minigene and GAPDH mRNA are quantified using the primers and probes referenced in Table 2. Primer SMN Forward A (SEQ ID NO.1) hybridizes to a nucleotide sequence in exon 7 (nucleotide 22 to nucleotide 40), primer SMN Reverse A (SEQ ID NO.2) hybridizes to a nucleotide sequence in the coding sequence of Firefly luciferase, SMN Probe A (SEQ ID NO.3) hybridizes to a nucleotide sequence in exon 7 (nucleotide 50 to nucleotide 54) and exon 8 (nucleotide 1 to nucleotide 21). The combination of these three oligonucleotides detects only SMN1 or SMN2 minigenes (RT-qPCR) and will not detect endogenous SMN1 or SMN2 genes.
The SMN forward and reverse primers are used at final concentrations of 0.4 μM. The SMN probe is used at a final concentration of 0.15 μM. The GAPDH primers are used at final concentrations of 0.2 μM and the probe at 0.15 μM.
The SMN2-minigene GAPDH mix (15 μL total volume) is prepared by combining 7.5 of 2×RT-PCR buffer, 0.4 μL of 25×RT-PCR enzyme mix, 0.75 μL of 20× GAPDH primer-probe mix, […] of water, 2 μL of 10-fold diluted cell lysate, 0.06 μL of 100 μM SMN forward primer, 0.06 μL of 100 μM SMN reverse primer, and 0.225 μL of 100 μM SMN probe.
PCR is carried out at the following temperatures for the indicated time: Step 1: 48° C. (15 min); Step 2: 95° C. (10 min); Step 3: 95° C. (15 sec); Step 4: 60° C. (1 min); then repeat Steps 3 and 4 for a total of 40 cycles.
Each reaction mixture contains both SMN2-A minigene and GAPDH primers/probe sets (multiplex design), allowing simultaneous measurement of the levels of two transcripts.
The increase in the abundance of the FL SMN2mini mRNA relative to that in cells treated with vehicle control is determined from real-time PCR data using a modified ΔΔCt method (as described in Livak and Schmittgen, Methods, 2001, 25:402-8). The amplification efficiency E is calculated from the slope of the amplification curve for FL SMN2mini and GAPDH individually. The abundance of FL SMN2mini and GAPDH mRNA are then calculated as (1+E)^−Ct, where Ct is the threshold value for each amplicon. The abundance of FL SMN2mini mRNA is normalized to GAPDH mRNA abundance. The normalized FL SMN2mini mRNA abundance from test compound-treated samples is then divided by normalized FL SMN2mini mRNA abundance from vehicle-treated cells to determine the level of FL SMN2mini mRNA relative to vehicle control. […]

[2] = test system: SMN protein in SMA patient fibroblast cells (GM03813); test: SMN protein assay (HTRF) in cultured cells; type: cell-based; settings: Homo sapiens, SMA Type 1 patient fibroblasts, 48 hours; for EC (1.5-fold): 7-point concentration curve, concentration giving 1.5 times SMN protein vs vehicle, read-out: EC1.5x SMN protein (EC1.5x concentration for SMN protein expression); for maximal fold induction: fold increase relative to vehicle control, read-out: Max. fold increase of SMN protein
Method: The SMN HTRF (homogeneous time resolved fluorescence) assay is used to quantify the level of SMN protein in SMA patient fibroblast cells treated with test compounds. Materials used and respective sources are listed below in Table 4.
Cells are thawed and cultured in DMEM-10% FBS for 72 hours. Cells are trypsinized, counted and re-suspended to a concentration of 25,000 cells/mL in DMEM-10% FBS. The cell suspensions are plated at 5,000 cells per well in a 96 well microtiter plate and incubated for 3 to 5 hours. Test compounds are serially diluted 3.16-fold in 100% DMSO to generate a 7-point concentration curve. 1 μL of test compound solution is transferred to cell-containing wells and cells are incubated for 48 hours in a cell culture incubator (37° C., 5% CO2, 100% relative humidity). Triplicate samples are set up for each test compound concentration. After 48 hours, the supernatant is removed from the wells and 25 μL of the RIPA lysis buffer, containing protease inhibitors, is added to the wells and incubated with shaking at room temperature for 1 hour. 25 μL of the diluent is added and then 35 μL of the resulting lysate is transferred to a 384-well plate, where each well contains 5 μL of the antibody solution (1:100 dilution of anti-SMN d2 and anti-SMN cryptate in SMN reconstitution buffer). The plate is centrifuged for 1 minute to bring the solution to the bottom of the wells, then incubated overnight at room temperature. Fluorescence for each well of the plate at 665 nm and 620 nm is measured on an EnVision multilabel plate reader (Perkin-Elmer).
The normalized fluorescence signal is calculated for each sample, Blank and vehicle control well by dividing the signal at 665 nm by the signal at 620 nm. Normalizing the signal accounts for possible fluorescence quenching due to the matrix effect of the lysate. The ΔF value (a measurement of SMN protein abundance as a percent value) for each sample well is calculated by subtracting the normalized average fluorescence for the Blank control wells from the normalized fluorescence for each sample well, then dividing this difference by the normalized average fluorescence for the Blank control wells and multiplying the resulting value by 100. The ΔF value for each sample well represents the SMN protein abundance from test compound-treated samples. The ΔF value for each sample well is divided by the ΔF value for the vehicle control wells to calculate the fold increase in SMN protein abundance relative to the vehicle control. Table 5 provides EC1.5× concentrations for SMN protein expression that was obtained from the 7-point concentration data generated according to the above procedure for particular compounds of the present invention.
Table 6 provides the maximum fold increase of SMN protein that was obtained from the 7-point concentration data generated according to the above procedure for particular compounds of the present invention

| SMILES | EC (1.5-fold) [1] | EC (1.5-fold) [2] | maximal fold induction [2] |
| --- | --- | --- | --- |
| CCOc1cc(N2CCN[C@H](C)C2)ccc1C(=O)Nc1cn2cc(C)nc2c(C)n1 [Example 15, N-(2,8-dimethylimidazo[1,2-a]pyrazin-6-yl)-2-ethoxy-4-[(3R)-3-methylpiperazin-1-yl]benzamide] | 0.038 µM | 0.303 µM | 1.72 |
| CCOc1cc(N2C[C@@H](C)N[C@@H](C)C2)ccc1C(=O)Nc1cn2cc(C)nc2cn1 [Example 10, 4-[(3S,5R)-3,5-dimethylpiperazin-1-yl]-2-ethoxy-N-(2-methylimidazo[1,2-a]pyrazin-6-yl)benzamide] | 0.0383 µM | 0.13 µM | 1.91 |
| Cc1cn2cc(NC(=O)c3ccc(N4CCN[C@H](C)C4)cc3F)nc(C(F)F)c2n1 [Example 44, N-[8-(difluoromethyl)-2-methylimidazo[1,2-a]pyrazin-6-yl]-2-fluoro-4-[(3R)-3-methylpiperazin-1-yl]benzamide] | 0.0095 µM | 0.035 µM | 1.79 |
| Cc1cn2cc(NC(=O)c3c(F)cc(N4CCN[C@H](C)C4)cc3F)nc(C)c2n1 [Example 14, N-(2,8-dimethylimidazo[1,2-a]pyrazin-6-yl)-2,6-difluoro-4-[(3R)-3-methylpiperazin-1-yl]benzamide] | 0.0097 µM | 0.124 µM | 1.61 |
| Cc1cn2cc(NC(=O)c3ccc(N4C[C@@H](C)N[C@@H](C)C4)cc3F)nc(C)c2n1 [Example 19, N-(2,8-dimethylimidazo[1,2-a]pyrazin-6-yl)-4-[(3R,5S)-3,5-dimethylpiperazin-1-yl]-2-fluorobenzamide] | 0.003 µM | 0.0274 µM | 1.71 |
| CCc1nc(NC(=O)c2ccc(N3CCN4CCC[C@H]4C3)cc2F)cn2cc(C)nc12 [Example 16, 4-[(8aS)-3,4,6,7,8,8a-hexahydro-1H-pyrrolo[1,2-a]pyrazin-2-yl]-N-(8-ethyl-2-methylimidazo[1,2-a]pyrazin-6-yl)-2-fluorobenzamide] | 0.0314 µM | 0.237 µM | 1.72 |
| Cc1cn2cc(NC(=O)c3c(F)cc(N4CCN5CCC[C@H]5C4)cc3F)nc(C)c2n1 [Example 18, 4-[(8aS)-3,4,6,7,8,8a-hexahydro-1H-pyrrolo[1,2-a]pyrazin-2-yl]-N-(2,8-dimethylimidazo[1,2-a]pyrazin-6-yl)-2,6-difluorobenzamide] | 0.0234 µM | 0.117 µM | 1.75 |
| CC[C@@H]1CN(c2ccc(C(=O)Nc3cn4cc(C)nc4cn3)c(OC)c2)CCN1 [Example 40, 4-[(3R)-3-ethylpiperazin-1-yl]-2-methoxy-N-(2-methylimidazo[1,2-a]pyrazin-6-yl)benzamide] | 0.038 µM | 0.388 µM | 1.93 |
| Cc1cn2cc(NC(=O)c3ccc(N4CCN[C@H](C)C4)cc3F)nc(C)c2n1 [Example 11, N-(2,8-dimethylimidazo[1,2-a]pyrazin-6-yl)-2-fluoro-4-[(3R)-3-methylpiperazin-1-yl]benzamide] | 0.0164 µM | 0.0522 µM | 1.8 |
| Cc1cn2cc(NC(=O)c3ccc(N4CCNC(C(C)C)C4)cc3F)ncc2n1 (stereo not drawn) [Example 45, 2-fluoro-N-(2-methylimidazo[1,2-a]pyrazin-6-yl)-4-(3-propan-2-ylpiperazin-1-yl)benzamide hydrochloride] | 0.106 µM | 0.264 µM | 1.76 |
| CCOc1cc(N2CCC(N3CC(OC)C3)CC2)ccc1C(=O)Nc1cn2cc(C)nc2c(C)n1 [Example 49, N-(2,8-dimethylimidazo[1,2-a]pyrazin-6-yl)-2-ethoxy-4-[4-(3-methoxyazetidin-1-yl)piperidin-1-yl]benzamide] | 0.223 µM | 1.98 µM | 1.51 |
| CCOc1cc(N2CCN3CCC[C@H]3C2)ccc1C(=O)Nc1cn2cc(C)nc2c(C)n1 [Example 12, 4-[(8aS)-3,4,6,7,8,8a-hexahydro-1H-pyrrolo[1,2-a]pyrazin-2-yl]-N-(2,8-dimethylimidazo[1,2-a]pyrazin-6-yl)-2-ethoxybenzamide] | 0.145 µM | 1.73 µM | 1.56 |
| Cc1cn2cc(NC(=O)c3ccc(N4CCN[C@H](C)C4)cc3F)nc(C3CC3)c2n1 [Example 23, N-(8-cyclopropyl-2-methylimidazo[1,2-a]pyrazin-6-yl)-2-fluoro-4-[(3R)-3-methylpiperazin-1-yl]benzamide hydrochloride] | 0.0268 µM | 0.0622 µM | 1.72 |
| Cc1cn2cc(NC(=O)c3ccc(N4CCN[C@H](C)C4)cc3F)nc(C(F)(F)F)c2n1 [Example 43, 2-fluoro-4-[(3R)-3-methylpiperazin-1-yl]-N-[2-methyl-8-(trifluoromethyl)imidazo[1,2-a]pyrazin-6-yl]benzamide] | 0.04 µM | 0.087 µM | 1.76 |
| CCOc1cc(N2CCCNCC2)ccc1C(=O)Nc1cn2cc(C)nc2cn1 [Example 9, 4-(1,4-diazepan-1-yl)-2-ethoxy-N-(2-methylimidazo[1,2-a]pyrazin-6-yl)benzamide] | 0.098 µM | 0.345 µM | 1.73 |
